According to patent US12274725B2, “Zika virus strains for treatment of glioma” (priority 2017, dated 2025):

Experiments:
GSC lines (387 and 3565) = test: Temozolomide cytotoxicity assay; type: cell-based, human; details: 7 days
Experimental: Two GSC lines (387 and 3565) were treated with indicated concentrations of temozolomide for 7 days. Relative cell number was assayed by CellTiter-Glo on day 7 and normalized to PBS control.
GSCs were plated at 1,000 cells/well in 96-well tissue culture treated plates (TPP) and allowed to attach overnight. For viral infection and growth inhibition assays, wild-type ZIKV-Dakar, ZIKV-Brazil, or mouse adapted ZIKV-Dakar were used at an MOI of 5. For combined drug+virus therapy experiments, wild-type parental ZIKV-Cambodia and its derivative ZIKV-E218A were used for infection. Temozolomide (TMZ, Sigma) was dissolved in PBS and diluted in Neurobasal complete media. ZIKV was added at an MOI of 5 by itself or 4 h before TMZ (250 μM) addition. Cell supernatants were stored at −80° C. for subsequent analysis.

recurrent GBM = details: cited from earlier work

With `Cn1nnc2c(C(N)=O)ncn2c1=O` [TMZ, Temozolomide] as the molecule, how does the “effective TMZ concentration” value (GSC lines (387 and 3565)) read?
The value was 250 µM.

What does the source list for “nivolumab: immune checkpoint inhibitor tested in CheckMate 143”?
safety in patients (recurrent GBM; in vivo): safe; overall response rate (recurrent GBM; recurrent GBM): lower than the current standard, bevacizumab
